Assay results taken from PubChem BioAssay (NCI).
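Five concentrations, 48 hours, 96-well plates. TGI marks complete inhibition of growth.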

Experiments:
Assay in all cases: NCI tumour cell line growth inhibition, 48 h
786-0 renal = tested on: 786-0 renal
ACHN renal = tested on: ACHN renal
CCRF-CEM leukemia = tested on: CCRF-CEM leukemia
HOP-92 NSCLC = tested on: HOP-92 NSCLC
HS 578T breast = tested on: HS 578T breast
LOX IMVI melanoma = tested on: LOX IMVI melanoma
MDA-MB-435 = tested on: MDA-MB-435
MDA-N = tested on: MDA-N
NCI-H226 lung = tested on: NCI-H226 lung
NCI-H23 lung = tested on: NCI-H23 lung
NCI-H460 lung = tested on: NCI-H460 lung
PC-3 prostate = tested on: PC-3 prostate
SF-268 CNS = tested on: SF-268 CNS
SK-MEL-28 melanoma = tested on: SK-MEL-28 melanoma
SNB-75 CNS = tested on: SNB-75 CNS
SR leukemia = tested on: SR leukemia
T-47D breast = tested on: T-47D breast
TK-10 renal = tested on: TK-10 renal
UACC-257 melanoma = tested on: UACC-257 melanoma

c1ccc([P+](CC[P+](c2ccccc2)(c2ccccc2)c2ccccc2)(c2ccccc2)c2ccccc2)cc1
TGI (786-0 renal): > 100 µM
TGI (ACHN renal): > 100 µM
TGI (CCRF-CEM leukemia): 2.95 µM
TGI (HOP-92 NSCLC): > 92.3 µM
TGI (HS 578T breast): > 100 µM
TGI (LOX IMVI melanoma): > 100 µM
TGI (MDA-MB-435): 45.5 µM
TGI (MDA-N): > 61.8 µM
TGI (NCI-H226 lung): > 100 µM
TGI (NCI-H23 lung): > 100 µM
TGI (NCI-H460 lung): 35 µM
TGI (PC-3 prostate): 60.6 µM
TGI (SF-268 CNS): > 100 µM
TGI (SK-MEL-28 melanoma): 38.4 µM
TGI (SNB-75 CNS): > 76.5 µM
TGI (SR leukemia): > 79.8 µM
TGI (T-47D breast): > 58.8 µM
TGI (TK-10 renal): > 67.3 µM
TGI (UACC-257 melanoma): 11 µM

CNC(=S)N=Nc1c(O)n(CN2CCOCC2)c2ccc([N+](=O)[O-])cc12
TGI (786-0 renal): 28.7 µM
TGI (ACHN renal): 35.3 µM
TGI (CCRF-CEM leukemia): 71.8 µM
TGI (HOP-92 NSCLC): 43.9 µM
TGI (HS 578T breast): 73 µM
TGI (LOX IMVI melanoma): 31.8 µM
TGI (MDA-MB-435): > 100 µM
TGI (MDA-N): > 100 µM
TGI (NCI-H226 lung): 36.3 µM
TGI (NCI-H23 lung): 32.2 µM
TGI (NCI-H460 lung): 75 µM
TGI (PC-3 prostate): 57.5 µM
TGI (SF-268 CNS): 47.5 µM
TGI (SK-MEL-28 melanoma): 54.8 µM
TGI (SR leukemia): > 100 µM
TGI (T-47D breast): 38.9 µM
TGI (TK-10 renal): 29.8 µM
TGI (UACC-257 melanoma): 77.6 µM

O=C(Nc1nncs1)NS(=O)(=O)n1c(=S)sc2ccccc21
TGI (786-0 renal): > 100 µM
TGI (ACHN renal): > 100 µM
TGI (CCRF-CEM leukemia): 75.7 µM
TGI (HOP-92 NSCLC): > 100 µM
TGI (HS 578T breast): > 100 µM
TGI (LOX IMVI melanoma): > 100 µM
TGI (MDA-MB-435): > 100 µM
TGI (MDA-N): > 100 µM
TGI (NCI-H23 lung): > 100 µM
TGI (NCI-H460 lung): > 100 µM
TGI (PC-3 prostate): > 100 µM
TGI (SF-268 CNS): > 100 µM
TGI (SK-MEL-28 melanoma): > 100 µM
TGI (SNB-75 CNS): > 100 µM
TGI (SR leukemia): > 100 µM
TGI (T-47D breast): > 100 µM
TGI (TK-10 renal): > 100 µM
TGI (UACC-257 melanoma): > 100 µM

C=C(C(=O)O)[C@@H]1C[C@@H](OC(C)=O)[C@]2(C)CC/C=C(\C)CCC[C@H](C)[C@H](O)[C@@H]1O2
TGI (786-0 renal): > 100 µM
TGI (ACHN renal): > 100 µM
TGI (CCRF-CEM leukemia): 73.4 µM
TGI (HOP-92 NSCLC): > 100 µM
TGI (HS 578T breast): > 100 µM
TGI (LOX IMVI melanoma): > 100 µM
TGI (MDA-MB-435): 59.1 µM
TGI (MDA-N): 64.2 µM
TGI (NCI-H226 lung): > 100 µM
TGI (NCI-H460 lung): > 100 µM
TGI (PC-3 prostate): > 100 µM
TGI (SF-268 CNS): > 100 µM
TGI (SK-MEL-28 melanoma): > 100 µM
TGI (SNB-75 CNS): > 100 µM
TGI (SR leukemia): 65.1 µM
TGI (T-47D breast): > 100 µM
TGI (TK-10 renal): > 100 µM
TGI (UACC-257 melanoma): > 100 µM

O=C(c1ccccc1)c1c(-c2ccccc2)n(-c2ccccc2)[nH]c(=O)c1=O
TGI (786-0 renal): > 100 µM
TGI (ACHN renal): > 100 µM
TGI (CCRF-CEM leukemia): 35.5 µM
TGI (HOP-92 NSCLC): > 100 µM
TGI (HS 578T breast): 62.1 µM
TGI (LOX IMVI melanoma): > 100 µM
TGI (MDA-MB-435): > 100 µM
TGI (MDA-N): > 100 µM
TGI (NCI-H226 lung): > 100 µM
TGI (NCI-H23 lung): > 100 µM
TGI (NCI-H460 lung): > 100 µM
TGI (PC-3 prostate): 32.9 µM
TGI (SF-268 CNS): > 100 µM
TGI (SK-MEL-28 melanoma): > 100 µM
TGI (SR leukemia): > 100 µM
TGI (T-47D breast): > 100 µM
TGI (TK-10 renal): > 100 µM
TGI (UACC-257 melanoma): > 100 µM

O=C(Oc1cccnc1)c1cc2cc(CCl)ccc2oc1=O
TGI (786-0 renal): 36.1 µM
TGI (ACHN renal): > 100 µM
TGI (CCRF-CEM leukemia): > 100 µM
TGI (HOP-92 NSCLC): 36.9 µM
TGI (HS 578T breast): 55.1 µM
TGI (LOX IMVI melanoma): 44.7 µM
TGI (MDA-MB-435): 73 µM
TGI (MDA-N): > 100 µM
TGI (NCI-H226 lung): > 100 µM
TGI (NCI-H23 lung): 39.5 µM
TGI (NCI-H460 lung): > 100 µM
TGI (PC-3 prostate): 32.9 µM
TGI (SF-268 CNS): 45.3 µM
TGI (SK-MEL-28 melanoma): > 100 µM
TGI (SNB-75 CNS): 79.7 µM
TGI (SR leukemia): 73.6 µM
TGI (T-47D breast): 48 µM
TGI (TK-10 renal): 50.8 µM
TGI (UACC-257 melanoma): 98.7 µM

CC(C(=O)OCc1ccccc1)(c1ccco1)N1C(=O)OC(c2ccccc2)C1c1ccccc1 (stereo not given)
TGI (786-0 renal): > 100 µM
TGI (ACHN renal): > 100 µM
TGI (CCRF-CEM leukemia): > 100 µM
TGI (HOP-92 NSCLC): > 100 µM
TGI (HS 578T breast): > 100 µM
TGI (LOX IMVI melanoma): > 100 µM
TGI (MDA-MB-435): > 100 µM
TGI (MDA-N): > 100 µM
TGI (NCI-H226 lung): > 100 µM
TGI (NCI-H23 lung): > 100 µM
TGI (NCI-H460 lung): > 100 µM
TGI (PC-3 prostate): > 100 µM
TGI (SF-268 CNS): > 100 µM
TGI (SK-MEL-28 melanoma): > 100 µM
TGI (SNB-75 CNS): > 100 µM
TGI (SR leukemia): > 100 µM
TGI (T-47D breast): > 100 µM
TGI (TK-10 renal): > 100 µM
TGI (UACC-257 melanoma): > 100 µM

CCCCCC(=O)CCCCCCCC(O)CC(=O)OCC (stereo not given)
TGI (786-0 renal): > 100 µM
TGI (ACHN renal): > 100 µM
TGI (CCRF-CEM leukemia): > 100 µM
TGI (HOP-92 NSCLC): > 100 µM
TGI (HS 578T breast): > 100 µM
TGI (LOX IMVI melanoma): > 100 µM
TGI (MDA-MB-435): > 100 µM
TGI (MDA-N): > 100 µM
TGI (NCI-H226 lung): > 100 µM
TGI (NCI-H23 lung): > 100 µM
TGI (NCI-H460 lung): > 100 µM
TGI (PC-3 prostate): > 100 µM
TGI (SF-268 CNS): > 100 µM
TGI (SK-MEL-28 melanoma): > 100 µM
TGI (SR leukemia): > 100 µM
TGI (T-47D breast): > 100 µM
TGI (TK-10 renal): > 100 µM
TGI (UACC-257 melanoma): > 100 µM

O=[N+]([O-])/C(C(Cl)=C(Cl)Cl)=C(/Nc1ccccc1)SCc1ccccc1
TGI (786-0 renal): 31.1 µM
TGI (ACHN renal): 77.4 µM
TGI (CCRF-CEM leukemia): 35.5 µM
TGI (HOP-92 NSCLC): 60.5 µM
TGI (HS 578T breast): 75.5 µM
TGI (LOX IMVI melanoma): 39.1 µM
TGI (MDA-MB-435): 31.7 µM
TGI (MDA-N): 33.9 µM
TGI (NCI-H226 lung): 44.6 µM
TGI (NCI-H23 lung): 40.5 µM
TGI (NCI-H460 lung): 42.8 µM
TGI (PC-3 prostate): 49.4 µM
TGI (SF-268 CNS): 43.4 µM
TGI (SK-MEL-28 melanoma): 39.2 µM
TGI (SR leukemia): 52.3 µM
TGI (T-47D breast): > 100 µM
TGI (TK-10 renal): 60.6 µM
TGI (UACC-257 melanoma): 39.5 µM

O=S1(=O)Cc2ccc3c4c2-c2c(ccc5ccc(c-4c25)CS(=O)(=O)C3)C1
TGI (786-0 renal): > 100 µM
TGI (ACHN renal): > 100 µM
TGI (HOP-92 NSCLC): > 100 µM
TGI (HS 578T breast): > 100 µM
TGI (LOX IMVI melanoma): > 100 µM
TGI (MDA-MB-435): > 100 µM
TGI (MDA-N): > 100 µM
TGI (NCI-H226 lung): > 100 µM
TGI (NCI-H460 lung): > 100 µM
TGI (PC-3 prostate): > 100 µM
TGI (SF-268 CNS): > 100 µM
TGI (SK-MEL-28 melanoma): > 100 µM
TGI (SNB-75 CNS): > 100 µM
TGI (SR leukemia): 69 µM
TGI (T-47D breast): > 100 µM
TGI (TK-10 renal): > 100 µM
TGI (UACC-257 melanoma): > 100 µM

Cc1cc(C)c(C(=O)c2nnc3ccccc3c2N)c(C)c1
TGI (786-0 renal): 32.2 µM
TGI (ACHN renal): > 100 µM
TGI (CCRF-CEM leukemia): > 100 µM
TGI (HOP-92 NSCLC): 52.9 µM
TGI (HS 578T breast): 57.3 µM
TGI (LOX IMVI melanoma): 34.9 µM
TGI (MDA-MB-435): 56.3 µM
TGI (MDA-N): 52.6 µM
TGI (NCI-H226 lung): 49.7 µM
TGI (NCI-H23 lung): > 100 µM
TGI (PC-3 prostate): 56.9 µM
TGI (SF-268 CNS): > 100 µM
TGI (SK-MEL-28 melanoma): 56.7 µM
TGI (SNB-75 CNS): 86.3 µM
TGI (SR leukemia): > 100 µM
TGI (T-47D breast): 56.6 µM
TGI (UACC-257 melanoma): > 100 µM

COc1cc(O)c(C(=O)/C=C/c2ccc(O)cc2)cc1Oc1ccc(/C=C/C(=O)c2ccc(O)cc2O)cc1
TGI (786-0 renal): 16.5 µM
TGI (ACHN renal): 15.7 µM
TGI (CCRF-CEM leukemia): 29.4 µM
TGI (HOP-92 NSCLC): 22.2 µM
TGI (HS 578T breast): > 50 µM
TGI (LOX IMVI melanoma): 18.3 µM
TGI (MDA-MB-435): 25.7 µM
TGI (MDA-N): 31 µM
TGI (NCI-H23 lung): 33.2 µM
TGI (NCI-H460 lung): 30.4 µM
TGI (PC-3 prostate): 22.1 µM
TGI (SF-268 CNS): 20.5 µM
TGI (SK-MEL-28 melanoma): 15.2 µM
TGI (SNB-75 CNS): 20.1 µM
TGI (SR leukemia): 16.1 µM
TGI (T-47D breast): > 50 µM
TGI (TK-10 renal): 25.6 µM
TGI (UACC-257 melanoma): 23.2 µM

O=c1cc(CO)oc(C(O)c2ccccc2)c1O (stereo not given)
TGI (786-0 renal): > 100 µM
TGI (ACHN renal): > 100 µM
TGI (HOP-92 NSCLC): > 100 µM
TGI (HS 578T breast): > 100 µM
TGI (LOX IMVI melanoma): > 100 µM
TGI (MDA-MB-435): > 100 µM
TGI (MDA-N): > 100 µM
TGI (NCI-H226 lung): > 100 µM
TGI (NCI-H23 lung): > 100 µM
TGI (NCI-H460 lung): > 100 µM
TGI (PC-3 prostate): > 100 µM
TGI (SF-268 CNS): > 100 µM
TGI (SK-MEL-28 melanoma): > 100 µM
TGI (SNB-75 CNS): > 100 µM
TGI (SR leukemia): > 100 µM
TGI (T-47D breast): > 100 µM
TGI (TK-10 renal): > 100 µM
TGI (UACC-257 melanoma): > 100 µM
